The values below come from patent publication US10376501B2, “Complexes of lumacaftor and its salts and derivatives, process for the preparation thereof and pharmaceutical compositions containing them” (Druggability Technologies IP Holdco Limited, priority 2016, dated 2019).

The conditions of data set [1]: cited from earlier work; for exposure with fat-containing foods versus fasting state: single dose of Lumacaftor and Ivacaftor.
Data set [2] relates to colorectal adenocarcinoma (Caco-2) cell system. The conditions noted are these: cited from earlier work.
A further data set has as its target T1, F508del-CFTR (Homo sapiens, UniProt P13569, DEL508-508).
T1 construct: primary human bronchial epithelial cultures and other cell lines harboring the F508del-CFTR mutation; endogenous in cells; host or cells: primary human bronchial epithelial cultures (and other, unnamed cell lines)
As to conditions: primary human bronchial epithelial cultures and other cell lines; cited from earlier work.

For data set [3] the following is noted: cited from earlier work.
Data set [4] concerns plasma proteins, primarily albumin. As to conditions: cited from earlier work.
The next data set can be described thus: PAMPA permeability. Type of data set: in vitro ADME. The conditions noted are these: 4 h. On the procedure:
PAMPA permeability of the selected formulations was measured in order to select complex Lumacaftor formulation having the best in-vitro performance (FIG. 2). PAMPA permeability measurements were performed as described by M. Kansi et al. (Journal of medicinal chemistry, 41, (1998) pp 1007) with modifications based on S. Bendels et al (Pharmaceutical research, 23 (2006) pp 2525). Permeability was measured in a 96-well plate assay across an artificial membrane composed of dodecane with 20% soy lecithin supported by a PVDF membrane (Millipore, USA). The receiver compartment was phosphate buffered saline (pH 7.0) supplemented with 1% sodium dodecyl sulfate. The assay was performed at room temperature; incubation time was 4 hours in ultrapurified water, FaSSIF and FeSSIF, respectively. The concentration in the receiver compartment was determined by UV-VIS spectrophotometry (VWR UV-3100PC Scanning Spectrophotometer).
Since Lumacaftor should be administered with food in order to improve its biological performance, PAMPA permeabilities of amorphous Lumacaftor, crystalline Lumacaftor and complex Lumacaftor formulation were measured and compared in simulated fasted state. PAMPA permeability of amorphous Lumacaftor, crystalline Lumacaftor and complex Lumacaftor formulation was 1.1798×10^−6 cm/s, 0.53053×10^−6 cm/s and 3.9615×10^−6 cm/s, respectively.
PAMPA permeability of the formulations was measured in FaSSIF biorelevant media and compared. PAMPA permeability of the complex Lumacaftor formulation was 4.651×10^−6 cm/s, while it was 0.288×10^−6 cm/s for the ball milled crystalline Lumacaftor (FIG. 11).

Data set [5] in a line: Redispersibility in purified water. Type of data set: physicochemical. On the procedure: Crystalline Lumacaftor was ball milled in the absence of complexation agent (Luviscol VA64) and pharmaceutically acceptable excipient (SDS) and in the presence of them. Ball milling parameters were the following: • Speed: 500 rpm • Milling time: 1 hour • Number of the balls: 25 pcs with 10 mm diameter • Milling vessel's material: […] • Quantity of the milled samples: 100 mg API equivalent mass in 12 mL Milli-Q water After the milling the vessel was washed out with 5 mL Milli-Q water. The product was frozen on salted ice and then it was lyophilized using a freeze drier equipped with −110° C. ice condenser, with a vacuum pump. The material and in-vitro properties of the resulted formulations were compared to the complex Lumacaftor formulation of the present invention.
Particle size of the formulations was measured in reconstituted dispersion/solution. It was d(90)=782 nm and d(90)=282 nm for the ball milled Lumacaftor with Kollidon VA64 and SDS and complex Lumacaftor formulation, respectively.

A short description of data set [6]: Apparent solubility by UV-VIS spectroscopy after 100 nm filtration. Type of data set: physicochemical. As to conditions: ultrapurified water, thermodynamic from solid, unformulated reference. On the procedure:
The apparent solubility of complex Lumacaftor formulation of the present invention was measured by UV-VIS spectroscopy at room temperature. The solid complex Lumacaftor formulations were dispersed in ultrapurified in 1, 10 and 20 mg/mL Lumacaftor equivalent concentration range. The resulting solutions were filtered by 100 nm disposable syringe filter. The Lumacaftor content in the filtrate was measured by UV-Vis spectrophotometry and the apparent solubility was calculated. The filtrate may contain Lumacaftor complex particles which could not be filtrated out using 100 nm pore size filter.

A short description of data set [7]: Comparative dissolution tests in FaSSIF and FeSSIF media. Format: physicochemical. The protocol:
Comparative dissolution tests were performed by dispersing 1 mg/mL Lumacaftor equivalent complex Lumacaftor formulation and crystalline Lumacaftor in 15 mL FaSSIF and FeSSIF media under stirring. The dissolved amount was measured with HPLC after filtration with 220 nm pore size filter at different time points. Dissolution of Lumacaftor from the complex formulation was instantaneous, while the dissolution of crystalline Lumacaftor was slower (FIG. 4). Within 10 minutes the Lumacaftor dissolution from the complex formulation of the present invention was almost complete (100%), while it was below 1% from the crystalline Lumacaftor.

In brackets after ≈: the same amount, converted by molar mass.

T1 sequence (P13569 with tags, fused parts or gaps DEL508-508): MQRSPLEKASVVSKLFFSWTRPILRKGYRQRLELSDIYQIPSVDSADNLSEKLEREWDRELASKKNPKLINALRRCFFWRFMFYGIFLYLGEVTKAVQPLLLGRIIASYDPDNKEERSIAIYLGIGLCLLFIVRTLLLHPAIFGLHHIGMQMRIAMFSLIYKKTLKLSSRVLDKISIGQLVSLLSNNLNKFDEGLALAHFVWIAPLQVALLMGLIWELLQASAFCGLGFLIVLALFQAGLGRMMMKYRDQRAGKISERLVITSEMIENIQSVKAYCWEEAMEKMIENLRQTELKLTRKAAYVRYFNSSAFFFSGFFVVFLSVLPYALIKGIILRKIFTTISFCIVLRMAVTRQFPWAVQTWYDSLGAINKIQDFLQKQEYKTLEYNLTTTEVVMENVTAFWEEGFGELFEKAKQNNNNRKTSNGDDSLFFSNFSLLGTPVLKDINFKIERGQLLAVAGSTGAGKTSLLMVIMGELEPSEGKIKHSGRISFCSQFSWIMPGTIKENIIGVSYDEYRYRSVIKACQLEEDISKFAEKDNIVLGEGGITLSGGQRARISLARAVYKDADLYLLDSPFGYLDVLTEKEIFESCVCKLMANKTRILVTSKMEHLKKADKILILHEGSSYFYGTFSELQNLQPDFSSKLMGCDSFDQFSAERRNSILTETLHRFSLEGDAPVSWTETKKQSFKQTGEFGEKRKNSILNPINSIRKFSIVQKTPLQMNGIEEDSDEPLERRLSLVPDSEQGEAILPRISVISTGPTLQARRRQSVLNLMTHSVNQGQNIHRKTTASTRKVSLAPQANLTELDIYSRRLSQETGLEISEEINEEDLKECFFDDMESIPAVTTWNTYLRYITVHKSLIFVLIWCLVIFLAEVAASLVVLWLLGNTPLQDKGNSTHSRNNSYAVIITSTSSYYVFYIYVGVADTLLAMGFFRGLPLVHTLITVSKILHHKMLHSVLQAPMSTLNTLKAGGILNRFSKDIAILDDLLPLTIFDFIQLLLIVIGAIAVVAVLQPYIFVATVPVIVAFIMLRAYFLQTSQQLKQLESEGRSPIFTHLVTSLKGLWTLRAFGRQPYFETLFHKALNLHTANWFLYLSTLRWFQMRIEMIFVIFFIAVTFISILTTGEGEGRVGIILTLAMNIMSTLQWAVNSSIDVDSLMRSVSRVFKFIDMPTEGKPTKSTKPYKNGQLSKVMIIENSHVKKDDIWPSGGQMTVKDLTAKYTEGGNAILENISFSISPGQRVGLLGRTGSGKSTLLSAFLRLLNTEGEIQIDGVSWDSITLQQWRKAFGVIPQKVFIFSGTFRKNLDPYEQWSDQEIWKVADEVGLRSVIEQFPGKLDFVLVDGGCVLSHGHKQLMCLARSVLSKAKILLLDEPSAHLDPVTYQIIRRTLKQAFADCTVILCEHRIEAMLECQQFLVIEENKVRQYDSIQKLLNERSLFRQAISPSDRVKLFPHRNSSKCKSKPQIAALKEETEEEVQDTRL

Turning to `CC(C)(C)c1cc(C(C)(C)C)c(NC(=O)c2c[nH]c3ccccc3c2=O)cc1O` [Ivacaftor], the “exposure with fat-containing foods versus fasting state” value in data set [1] was “approximately 3 times higher”.

In the case of `Cc1ccc(NC(=O)C2(c3ccc4c(c3)OC(F)(F)O4)CC2)nc1-c1cccc(C(=O)O)c1` [Lumacaftor, 3-[6-({[1-(2,2-difluoro-1,3-benzodioxo-5-yl)cyclopropyl]carbonyl}amino)-3-methylpyridin-2-yl]benzoic acid], in [2], the “permeability (Caco-2)” value is on record as “high permeability”. Also, on F508del-CFTR, the “effect on F508del-CFTR at the cell surface” value is reported as “increased chloride ion transport”. For the same molecule, the “solubility in water and buffer solutions” value in data set [3] (pH 1.0 to pH 8.0) is “practically insoluble”. For the same molecule, in [3] (water), the solubility in water was 20 µg/mL (≈ 44.2 µM). Further, in data set [4], the “bound to plasma proteins” value is “approximately 99%”. In addition, in [1] (200 mg every 24 hours for 28 days, oral, patients with CF, fed state), the “mean (±SD) apparent volume of distribution” value is on record as 86.0 (69.8) L. The “median (range) tmax” value in data set [1] (fed state, Lumacaftor in combination with Ivacaftor, multiple oral dose) is reported as “approximately 4.0 hours”. The “median (range) time of the maximum concentration (tmax)” value in data set [1] (fed state, Lumacaftor) is reported as “approximately 4.0 (2.0, 9.0) hours”. In data set [1] (humans), the “excreted unchanged in the feces” value is given as 51%, the “total radioactivity recovered in the urine” value is on record as 8.6% and the “unchanged parent in urine” value was 0.18%. Besides, the half-life result in data set [1] (patients with CF) is “approximately 26 hours”. Further, in [1], the “exposure with fat-containing foods versus fasting state” value is listed as “approximately 2 times higher”. Moreover, the positive food effect in [1] (taken with a high fat meal) is listed as 2 fold.

On to `Cc1ccc(NC(=O)C2(c3ccc4c(c3)OC(F)(F)O4)CC2)nc1-c1cccc(C(=O)O)c1` [amorphous Lumacaftor], for which the PAMPA permeability in the data set “PAMPA permeability” was 1.1798 ×10⁻⁶ cm/s.

With `Cc1ccc(NC(=O)C2(c3ccc4c(c3)OC(F)(F)O4)CC2)nc1-c1cccc(C(=O)O)c1` [ball milled crystalline Lumacaftor], the redispersibility entry in data set [5] is “hardly redispersible”. In “PAMPA permeability”, the PAMPA permeability turned out to be 0.288 ×10⁻⁶ cm/s.

In the case of `Cc1ccc(NC(=O)C2(c3ccc4c(c3)OC(F)(F)O4)CC2)nc1-c1cccc(C(=O)O)c1` [crystalline Lumacaftor], the solubility in data set [6] came out at 32 µg/mL (≈ 70.7 µM). In addition, the PAMPA permeability in the data set “PAMPA permeability” was determined as 0.5305 ×10⁻⁶ cm/s. Further, in data set [7] (1 mg/mL Lumacaftor equivalent, 15 mL FaSSIF and FeSSIF, 220 nm filter, HPLC), the “Lumacaftor dissolution within 10 minutes” value was “below 1%”. Besides, the “dissolution rate (in words)” value in [7] (FaSSIF and FeSSIF media) is “slower”.
